Assay results published in patent publication US9393271B2, “GHRH agonists for islet cell transplantation and function and the treatment of diabetes” (UNIVERSITY OF MIAMI, priority 2012, dated 2016).
Non-standard residues stand in square brackets, D forms with d. Residues, ends and D or L forms follow the SMILES beside them. *: point of attachment. Desaminotyrosyl = O=C(CCc1ccc(O)cc1)*; NMeY = CN[C@@H](Cc1ccc(O)cc1)C(=O)O; Nle = CCCC[C@H](N)C(=O)O; Orn = NCCC[C@H](N)C(=O)O; dAbu = CC[C@@H](N)C(=O)O; Abu = CC[C@H](N)C(=O)O; Ava = NCCCCC(=O)O; GABA = NCCCC(=O)O

Target: T1, GHRH receptor (human pituitary membrane homogenates) (Homo sapiens, UniProt Q02643)
T1 sequence (Q02643 23-423): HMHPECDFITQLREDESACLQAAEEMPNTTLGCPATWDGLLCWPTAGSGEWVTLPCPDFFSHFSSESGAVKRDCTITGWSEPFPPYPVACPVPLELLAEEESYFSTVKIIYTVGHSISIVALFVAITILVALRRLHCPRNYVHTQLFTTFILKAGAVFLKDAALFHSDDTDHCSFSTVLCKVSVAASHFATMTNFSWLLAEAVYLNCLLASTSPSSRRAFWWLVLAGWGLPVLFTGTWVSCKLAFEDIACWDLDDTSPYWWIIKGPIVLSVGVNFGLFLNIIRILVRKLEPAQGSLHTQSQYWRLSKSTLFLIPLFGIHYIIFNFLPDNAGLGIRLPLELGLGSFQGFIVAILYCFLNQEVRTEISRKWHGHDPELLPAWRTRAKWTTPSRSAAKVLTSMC
Assay: GHRH receptor binding, ligand competition with 125I-labeled JV-1-42 (Table 7)
Design: Normal human pituitaries were purchased from the National Hormone and Peptide Program; tissue National Hormone and Peptide Program (A. F. Parlow, Harbor-UCLA Medical Center, Torrance, Calif.); host or cells: normal human pituitary, membrane fraction / homogenate
Settings: JI-38 = 1

| Compound | Relative affinitiy (Binding potency) vs JI-38 |
| --- | --- |
| CCCC[C@H](NC(=O)[C@@H](NC(=O)[C@H](CC(=O)O)NC(=O)[C@H](CCC(N)=O)NC(=O)[C@H](CC(C)C)NC(=O)[C@H](CC(C)C)NC(=O)[C@H](CCCN)NC(=O)[C@H](CCCNC(=N)N)NC(=O)[C@H](C)NC(=O)[C@H](CO)NC(=O)[C@H](CC(C)C)NC(=O)[C@H](CCC(N)=O)NC(=O)[C@H](CC)NC(=O)[C@H](CC(C)C)NC(=O)[C@@H](NC(=O)[C@H](CCCN)NC(=O)[C@H](CCCNC(=N)N)NC(=O)[C@H](Cc1ccc(O)cc1)NC(=O)[C@H](CO)NC(=O)[C@H](CCC(N)=O)NC(=O)[C@@H](NC(=O)[C@H](Cc1ccccc1)NC(=O)[C@@H](NC(=O)[C@H](C)NC(=O)[C@H](CC(=O)O)NC(=O)[C@H](C)NC(=O)CCc1ccc(O)cc1)[C@@H](C)CC)[C@@H](C)O)C(C)C)[C@@H](C)CC)C(=O)N[C@@H](CC(=O)O)C(=O)N[C@@H](CCCNC(=N)N)C(=O)NCCCCC(N)=O [Peptide P-22327, [Dat^1, Gln^8, Orn^12, Abu^15, Orn^21, Nle^27, Asp^28, Apa^30]hGHRH(1-30)NH2] (Desaminotyrosyl-ADAIFTQSYR[Orn]VL[Abu]QLSAR[Orn]LLQDI[Nle]DR[Ava]-NH2) | 2.18 |
| CCCC[C@H](NC(=O)[C@@H](NC(=O)[C@H](CC(=O)O)NC(=O)[C@H](CCC(N)=O)NC(=O)[C@H](CC(C)C)NC(=O)[C@H](CC(C)C)NC(=O)[C@H](CCCN)NC(=O)[C@H](CCCNC(=N)N)NC(=O)[C@H](C)NC(=O)[C@H](CO)NC(=O)[C@H](CC(C)C)NC(=O)[C@H](CCC(N)=O)NC(=O)[C@H](CC)NC(=O)[C@H](CC(C)C)NC(=O)[C@@H](NC(=O)[C@H](CCCN)NC(=O)[C@H](CCCNC(=N)N)NC(=O)[C@H](Cc1ccc(O)cc1)NC(=O)[C@H](CO)NC(=O)[C@H](CC(N)=O)NC(=O)[C@@H](NC(=O)[C@H](Cc1ccccc1)NC(=O)[C@@H](NC(=O)[C@H](C)NC(=O)[C@H](CC(=O)O)NC(=O)[C@H](CC)NC(=O)[C@H](Cc1ccc(O)cc1)NC)[C@@H](C)CC)[C@@H](C)O)C(C)C)[C@@H](C)CC)C(=O)N[C@@H](CO)C(=O)N[C@@H](CCCNC(=N)N)C(=O)NCCCC(N)=O [Peptide P-25503, [N—Me-Tyr^1, Abu^2, Orn^12, Abu^15, Orn^21, Nle^27, Gab^30]hGHRH(1-30)NH2] (H-[NMeY][Abu]DAIFTNSYR[Orn]VL[Abu]QLSAR[Orn]LLQDI[Nle]SR[GABA]-NH2) | 3.67 |
| CCCC[C@H](NC(=O)[C@@H](NC(=O)[C@H](CC(=O)O)NC(=O)[C@H](CCC(N)=O)NC(=O)[C@H](CC(C)C)NC(=O)[C@H](CC(C)C)NC(=O)[C@H](CCCN)NC(=O)[C@H](CCCNC(=N)N)NC(=O)[C@H](C)NC(=O)[C@H](CO)NC(=O)[C@H](CC(C)C)NC(=O)[C@H](CCC(N)=O)NC(=O)[C@H](CC)NC(=O)[C@H](CC(C)C)NC(=O)[C@@H](NC(=O)[C@H](CCCN)NC(=O)[C@H](CCCNC(=N)N)NC(=O)[C@H](Cc1ccc(O)cc1)NC(=O)[C@H](CO)NC(=O)[C@H](CC(N)=O)NC(=O)[C@@H](NC(=O)[C@H](Cc1ccccc1)NC(=O)[C@@H](NC(=O)[C@H](C)NC(=O)[C@H](CC(=O)O)NC(=O)[C@@H](CC)NC(=O)CCc1ccc(O)cc1)[C@@H](C)CC)[C@@H](C)O)C(C)C)[C@@H](C)CC)C(=O)N[C@@H](CO)C(=O)N[C@@H](CCCNC(=N)N)C(=O)NCCCC(N)=O [Peptide P-25504, [Dat^1, D-Abu^2, Orn^12, Abu^15, Orn^21, Nle^27, Gab^30]hGHRH(1-30)NH2] (Desaminotyrosyl-[dAbu]DAIFTNSYR[Orn]VL[Abu]QLSAR[Orn]LLQDI[Nle]SR[GABA]-NH2) | 3.02 |
| CCCC[C@H](NC(=O)[C@@H](NC(=O)[C@H](CC(=O)O)NC(=O)[C@H](CCC(N)=O)NC(=O)[C@H](CC(C)C)NC(=O)[C@H](CC(C)C)NC(=O)[C@H](CCCN)NC(=O)[C@H](CCCNC(=N)N)NC(=O)[C@H](C)NC(=O)[C@H](CO)NC(=O)[C@H](CC(C)C)NC(=O)[C@H](CCC(N)=O)NC(=O)[C@H](CC)NC(=O)[C@H](CC(C)C)NC(=O)[C@@H](NC(=O)[C@H](CCCN)NC(=O)[C@H](CCCNC(=N)N)NC(=O)[C@H](Cc1ccc(O)cc1)NC(=O)[C@H](CO)NC(=O)[C@H](CC(N)=O)NC(=O)[C@@H](NC(=O)[C@H](Cc1ccccc1)NC(=O)[C@@H](NC(=O)[C@H](C)NC(=O)[C@H](CC(=O)O)NC(=O)[C@@H](C)NC(=O)CCc1ccc(O)cc1)[C@@H](C)CC)[C@@H](C)O)C(C)C)[C@@H](C)CC)C(=O)N[C@@H](CC(=O)O)C(=O)N[C@@H](CCCNC(=N)N)C(=O)NC [Peptide P-27400, [Dat^1, D-Ala^2, Orn^12, Abu^15, Orn^21, Nle^27, Asp^28]hGHRH(1-29)NH—CH3] (Desaminotyrosyl-[dA]DAIFTNSYR[Orn]VL[Abu]QLSAR[Orn]LLQDI[Nle]DR-NHMe) | 1.30 |
| CCCC[C@H](NC(=O)[C@@H](NC(=O)[C@H](CC(=O)O)NC(=O)[C@H](CCC(N)=O)NC(=O)[C@H](CC(C)C)NC(=O)[C@H](CC(C)C)NC(=O)[C@H](CCCN)NC(=O)[C@H](CCCNC(=N)N)NC(=O)[C@H](C)NC(=O)[C@H](CO)NC(=O)[C@H](CC(C)C)NC(=O)[C@H](CCC(N)=O)NC(=O)[C@H](CC)NC(=O)[C@H](CC(C)C)NC(=O)[C@@H](NC(=O)[C@H](CCCN)NC(=O)[C@H](CCCNC(=N)N)NC(=O)[C@H](Cc1ccc(O)cc1)NC(=O)[C@H](CO)NC(=O)[C@H](CCC(N)=O)NC(=O)[C@@H](NC(=O)[C@H](Cc1ccccc1)NC(=O)[C@@H](NC(=O)[C@H](C)NC(=O)[C@H](CC(=O)O)NC(=O)[C@@H](C)NC(=O)CCc1ccc(O)cc1)[C@@H](C)CC)[C@@H](C)O)C(C)C)[C@@H](C)CC)C(=O)N[C@@H](CC(=O)O)C(=O)N[C@H](CCCNC(=N)N)C(=O)NC [Peptide P-27401, [Dat^1, D-Ala^2, Gln^8, Orn^12, Abu^15, Orn^21, Nle^27, Asp^28, D-Arg^29]hGHRH(1-29)NH—CH3] (Desaminotyrosyl-[dA]DAIFTQSYR[Orn]VL[Abu]QLSAR[Orn]LLQDI[Nle]D[dR]-NHMe) | 1.59 |
| CCCC[C@H](NC(=O)[C@@H](NC(=O)[C@H](CC(=O)O)NC(=O)[C@H](CCC(N)=O)NC(=O)[C@H](CC(C)C)NC(=O)[C@H](CC(C)C)NC(=O)[C@H](CCCN)NC(=O)[C@H](CCCNC(=N)N)NC(=O)[C@H](C)NC(=O)[C@H](CO)NC(=O)[C@H](CC(C)C)NC(=O)[C@H](CCC(N)=O)NC(=O)[C@H](CC)NC(=O)[C@H](CC(C)C)NC(=O)[C@@H](NC(=O)[C@H](CCCN)NC(=O)[C@H](CCCNC(=N)N)NC(=O)[C@H](Cc1ccc(O)cc1)NC(=O)[C@H](CO)NC(=O)[C@H](CCC(N)=O)NC(=O)[C@@H](NC(=O)[C@H](Cc1ccccc1)NC(=O)[C@@H](NC(=O)[C@H](C)NC(=O)[C@H](CC(=O)O)NC(=O)[C@H](C)NC(=O)[C@H](Cc1ccc(O)cc1)NC)[C@@H](C)CC)[C@@H](C)O)C(C)C)[C@@H](C)CC)C(=O)N[C@@H](CO)C(=O)N[C@@H](CCCNC(=N)N)C(=O)NC [Peptide P-27405, [N—Me-Tyr^1, Gln^8, Orn^12, Abu^15, Orn^21, Nle^27]hGHRH(1-29)NH—CH3] (H-[NMeY]ADAIFTQSYR[Orn]VL[Abu]QLSAR[Orn]LLQDI[Nle]SR-NHMe) | 4.03 |
| CCCC[C@H](NC(=O)[C@@H](NC(=O)[C@H](CC(=O)O)NC(=O)[C@H](CCC(N)=O)NC(=O)[C@H](CC(C)C)NC(=O)[C@H](CC(C)C)NC(=O)[C@H](CCCN)NC(=O)[C@H](CCCNC(=N)N)NC(=O)[C@H](C)NC(=O)[C@H](CO)NC(=O)[C@H](CC(C)C)NC(=O)[C@H](CCC(N)=O)NC(=O)[C@H](CC)NC(=O)[C@H](CC(C)C)NC(=O)[C@@H](NC(=O)[C@H](CCCN)NC(=O)[C@H](CCCNC(=N)N)NC(=O)[C@H](Cc1ccc(O)cc1)NC(=O)[C@H](CO)NC(=O)[C@H](CCC(N)=O)NC(=O)[C@@H](NC(=O)[C@H](Cc1ccccc1)NC(=O)[C@@H](NC(=O)[C@H](C)NC(=O)[C@H](CC(=O)O)NC(=O)[C@H](C)NC(=O)[C@H](Cc1ccc(O)cc1)NC)[C@@H](C)CC)[C@@H](C)O)C(C)C)[C@@H](C)CC)C(=O)N[C@@H](CC(=O)O)C(=O)N[C@@H](CCCNC(=N)N)C(=O)NC [Peptide P-27406, [N—Me-Tyr^1, Gln^8, Orn^12, Abu^15, Orn^21, Nle^27, Asp^28]hGHRH(1-29)NH—CH3] (H-[NMeY]ADAIFTQSYR[Orn]VL[Abu]QLSAR[Orn]LLQDI[Nle]DR-NHMe) | 14.5 |
| CCCC[C@H](NC(=O)[C@@H](NC(=O)[C@H](CC(=O)O)NC(=O)[C@H](CCC(N)=O)NC(=O)[C@H](CC(C)C)NC(=O)[C@H](CC(C)C)NC(=O)[C@H](CCCN)NC(=O)[C@H](CCCNC(=N)N)NC(=O)[C@H](C)NC(=O)[C@H](CO)NC(=O)[C@H](CC(C)C)NC(=O)[C@H](CCC(N)=O)NC(=O)[C@H](CC)NC(=O)[C@H](CC(C)C)NC(=O)[C@@H](NC(=O)[C@H](CCCN)NC(=O)[C@H](CCCNC(=N)N)NC(=O)[C@H](Cc1ccc(O)cc1)NC(=O)[C@H](CO)NC(=O)[C@H](CCC(N)=O)NC(=O)[C@@H](NC(=O)[C@H](Cc1ccccc1)NC(=O)[C@@H](NC(=O)[C@H](C)NC(=O)[C@H](CC(=O)O)NC(=O)[C@H](C)NC(=O)CCc1ccc(O)cc1)[C@@H](C)CC)[C@@H](C)O)C(C)C)[C@@H](C)CC)C(=O)N[C@@H](CC(=O)O)C(=O)N[C@@H](CCCNC(=N)N)C(=O)NC [Peptide P-27407, [Dat^1, Gln^8, Orn^12, Abu^15, Orn^21, Nle^27, Asp^28]hGHRH(1-29)NH—CH3] (Desaminotyrosyl-ADAIFTQSYR[Orn]VL[Abu]QLSAR[Orn]LLQDI[Nle]DR-NHMe) | 1.45 |
